Measurements taken from ChEMBL document CHEMBL5518167, “Degradation of Polo-like Kinase 1 by the Novel Poly-Arginine N-Degron Pathway PROTAC Regulates Tumor Growth in Nonsmall Cell Lung Cancer” (J Med Chem, 2024).
The source made the active and inactive calls. The rule behind the calls is not given here. Where a SMILES comes first, the peptide text is derived from it. Bridges are numbered along the chain shown (N, C = ends). [ ]: non-standard residue; d: D form. His(π-(CH2)8Ph) = N[C@@H](Cc1cncn1CCCCCCCCc1ccccc1)C(=O)O; pT = C[C@@H](OP(=O)(O)O)[C@H](N)C(=O)O; Ahx = NCCCCCC(=O)O

Experiments:
[1] = test system: HeLa; experiment: Antitumor activity against human HeLa cells xenografted in iv dosed nude mouse assessed as reduction in tumor size; format: functional, organism-based; conditions: dose 10.0 mg/kg
[2] = test system: UBR/PLK1 (Homo sapiens); experiment: Protac activity at UBR/PLK1 in human PC-9 cells assessed as PLK1 degradation at 10 uM incubated for 2 to 24 hrs by immunoblotting analysis; conditions: time 2-24 hrs
[3] = test system: PC-9; experiment: Induction of cell cycle arrest in human PC-9 cells assessed as fold increase in S phase population at 10 uM incubated for 24 hrs by PI staining based flow cytometry analysis; format: functional
[4] = test system: A549; experiment: Cytotoxicity against human A549 cells assessed as change in morphology at 25 uM incubated for 24 hrs by phase contrast microscopic assay; format: functional, cell-based
[5] = test system: NCI-H1975; experiment: Antitumor activity against human NCI-H1975 cells harboring L858R/T790M double mutant xenografted in nude mouse assessed as fold reduction in tumor size at 10 mg/kg, iv administered for every 3 days in presence of 5 mg/kg osimertinib; format: functional
[6] = test system: NCI-H1975; experiment: Induction of cell cycle arrest in human NCI-H1975 cells assessed as G2/M phase arrest at 10 uM incubated for 24 hrs by PI staining based flow cytometry analysis; format: functional
[7] = test system: NCI-H1975; experiment: Antitumor activity against human NCI-H1975 cells harboring L858R/T790M double mutant xenografted in iv dosed nude mouse assessed as tumor growth inhibition administered for every 3 days in presence of 5 mg/kg osimertinib; format: functional, organism-based
[8] = target: E3 ubiquitin-protein ligase UBR2 (Homo sapiens) (UniProt Q8IWV8); experiment: Binding affinity to UBR2 (unknown origin) expressed in HEK293T cells incubated for 3 hrs by pull-down assay; format: cell-based
Chain of E3 ubiquitin-protein ligase UBR2 (Homo sapiens) (Q8IWV8 whole entry): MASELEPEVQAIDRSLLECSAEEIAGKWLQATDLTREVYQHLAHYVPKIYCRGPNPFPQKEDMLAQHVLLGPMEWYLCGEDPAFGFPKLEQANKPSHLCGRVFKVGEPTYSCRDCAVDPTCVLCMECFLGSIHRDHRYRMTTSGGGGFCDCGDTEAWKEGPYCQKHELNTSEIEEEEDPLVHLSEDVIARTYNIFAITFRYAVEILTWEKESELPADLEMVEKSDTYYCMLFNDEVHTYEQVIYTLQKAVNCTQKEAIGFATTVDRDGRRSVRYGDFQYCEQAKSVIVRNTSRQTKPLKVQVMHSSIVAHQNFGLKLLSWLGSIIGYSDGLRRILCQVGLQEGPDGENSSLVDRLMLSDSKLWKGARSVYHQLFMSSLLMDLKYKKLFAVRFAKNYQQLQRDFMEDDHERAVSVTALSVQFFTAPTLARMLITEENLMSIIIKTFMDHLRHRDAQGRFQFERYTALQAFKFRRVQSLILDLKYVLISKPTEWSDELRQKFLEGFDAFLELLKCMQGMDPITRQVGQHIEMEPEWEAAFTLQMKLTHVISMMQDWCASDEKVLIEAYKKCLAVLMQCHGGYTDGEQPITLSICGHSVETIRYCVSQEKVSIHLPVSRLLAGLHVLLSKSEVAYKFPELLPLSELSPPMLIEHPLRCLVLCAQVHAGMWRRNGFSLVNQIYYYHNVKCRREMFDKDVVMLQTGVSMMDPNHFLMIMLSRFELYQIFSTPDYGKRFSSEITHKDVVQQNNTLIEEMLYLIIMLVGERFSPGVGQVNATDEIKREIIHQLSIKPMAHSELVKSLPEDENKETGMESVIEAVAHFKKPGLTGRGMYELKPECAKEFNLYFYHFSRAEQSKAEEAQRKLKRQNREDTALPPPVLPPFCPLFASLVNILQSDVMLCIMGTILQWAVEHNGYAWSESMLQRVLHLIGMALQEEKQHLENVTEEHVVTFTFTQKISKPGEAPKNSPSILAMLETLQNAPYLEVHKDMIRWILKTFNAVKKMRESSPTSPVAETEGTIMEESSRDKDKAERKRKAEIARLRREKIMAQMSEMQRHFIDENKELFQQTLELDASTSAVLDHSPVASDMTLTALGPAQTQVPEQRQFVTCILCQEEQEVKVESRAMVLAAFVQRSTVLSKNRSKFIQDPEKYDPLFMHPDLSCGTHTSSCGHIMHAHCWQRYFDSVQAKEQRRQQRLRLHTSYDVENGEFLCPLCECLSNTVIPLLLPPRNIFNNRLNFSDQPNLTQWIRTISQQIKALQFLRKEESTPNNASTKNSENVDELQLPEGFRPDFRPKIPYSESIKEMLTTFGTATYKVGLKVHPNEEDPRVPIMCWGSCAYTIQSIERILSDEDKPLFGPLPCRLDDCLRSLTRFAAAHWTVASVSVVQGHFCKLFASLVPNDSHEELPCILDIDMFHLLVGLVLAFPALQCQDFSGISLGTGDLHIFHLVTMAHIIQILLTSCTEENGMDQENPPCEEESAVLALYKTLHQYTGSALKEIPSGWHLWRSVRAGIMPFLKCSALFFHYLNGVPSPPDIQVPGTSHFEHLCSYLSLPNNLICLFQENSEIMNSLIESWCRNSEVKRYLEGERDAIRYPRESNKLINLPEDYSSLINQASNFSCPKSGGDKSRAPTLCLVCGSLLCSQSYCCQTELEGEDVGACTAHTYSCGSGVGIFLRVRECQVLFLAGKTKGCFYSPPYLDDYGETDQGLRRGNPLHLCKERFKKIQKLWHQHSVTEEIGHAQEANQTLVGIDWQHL

[9] = test system: PC-9; experiment: Cytotoxicity against human PC-9 cells incubated for 24 hrs by MTT assay; format: functional, cell-based; conditions: PC-9, 24 h
[10] = Drug uptake in human HeLa cells nucleus at 10 uM incubated for 24 hrs by PI staining based inverted confocal laser scanning fluorescence microscopic anlaysis; format: ADME, subcellular
[11] = test system: HeLa; experiment: Induction of apoptosis in human HeLa cells at 18 uM incubated for 24 hrs by fluorescence microscopic analysis; format: functional, cell-based
[12] = test system: UBR/PLK1 (Homo sapiens); experiment: Protac activity at UBR/PLK1 in human HeLa cells assessed as PLK1 degradation at 5 uM incubated for 24 hrs by immunoblotting analysis
[13] = test system: HeLa; experiment: Cytotoxicity against human HeLa cells incubated for 24 hrs by MTT assay; format: functional, cell-based
[14] = test system: A549; experiment: Induction of cell cycle arrest in human A549 cells assessed as G2/M phase arrest at 10 uM incubated for 24 hrs by PI staining based flow cytometry analysis; format: functional
[15] = test system: UBR/PLK1 (Homo sapiens); experiment: Protac activity at UBR/PLK1 in human A549 cells assessed as PLK1 degradation at 5 to 30 uM preincubated for 24 hrs followed by MG132 addition for 8 hrs by immunoblotting analysis; conditions: dose 5-30 µM, time 32.0 hrs
[16] = test system: PC-9; experiment: Induction of cell cycle arrest in human PC-9 cells assessed as G2/M phase arrest at 10 uM incubated for 24 hrs by PI staining based flow cytometry analysis; format: functional
[17] = test system: A549; experiment: Antitumor activity against human A549 cells xenografted in nude mouse assessed as fold reduction in tumor size at 10 mg/kg, iv; format: functional
[18] = test system: NCI-H1975; experiment: Induction of cell cycle arrest in human NCI-H1975 cells assessed as delay in S phase progression at 10 uM incubated for 24 hrs by PI staining based flow cytometry analysis; format: functional
[19] = test system: UBR/PLK1 (Homo sapiens); experiment: Protac activity at UBR/PLK1 in human NCI-H1975 cells assessed as PLK1 degradation at 10 uM incubated for 2 to 24 hrs by immunoblotting analysis; conditions: time 2-24 hrs
[20] = test system: UBR/PLK1 (Homo sapiens); experiment: Protac activity at UBR/PLK1 in human A549 cells assessed as PLK1 degradation at 30 uM incubated for 24 hrs by immunoblotting analysis
[21] = target: Serine/threonine-protein kinase PLK1 (Homo sapiens, UniProt P53350); experiment: Binding affinity to PLK1 PBD (unknown origin) by ITC method
Chain of Serine/threonine-protein kinase PLK1 (P53350 whole entry): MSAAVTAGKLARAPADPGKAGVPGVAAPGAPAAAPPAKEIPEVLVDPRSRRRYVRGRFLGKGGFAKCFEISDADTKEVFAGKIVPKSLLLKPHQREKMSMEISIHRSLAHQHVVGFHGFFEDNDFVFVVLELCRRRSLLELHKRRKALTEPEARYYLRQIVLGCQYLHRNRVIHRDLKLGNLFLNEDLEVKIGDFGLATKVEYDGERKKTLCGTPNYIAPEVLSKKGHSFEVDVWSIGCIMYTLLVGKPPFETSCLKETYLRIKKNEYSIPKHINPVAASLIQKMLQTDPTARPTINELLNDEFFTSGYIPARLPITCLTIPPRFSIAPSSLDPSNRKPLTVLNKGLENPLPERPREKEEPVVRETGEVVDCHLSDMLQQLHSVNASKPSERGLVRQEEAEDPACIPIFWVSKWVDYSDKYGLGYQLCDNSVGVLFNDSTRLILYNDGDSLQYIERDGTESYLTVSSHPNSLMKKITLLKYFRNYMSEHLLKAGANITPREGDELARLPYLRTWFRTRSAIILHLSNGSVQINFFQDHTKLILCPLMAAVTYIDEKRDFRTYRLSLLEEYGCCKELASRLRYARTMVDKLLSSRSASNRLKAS

[22] = test system: PC-9; experiment: Induction of apoptosis in human PC-9 cells at 25 uM incubated for 24 hrs by fluorescence microscopic analysis; format: functional, cell-based
[23] = test system: UBR/PLK1 (Homo sapiens); experiment: Protac activity at UBR/PLK1 in human HeLa cells assessed as PLK1 degradation incubated for 24 hrs by immunoblotting analysis; conditions: dose 25-100 µM
[24] = as above
[25] = test system: A549; experiment: Cytotoxicity against human A549 cells incubated for 24 hrs by MTT assay; format: functional, cell-based; conditions: A549, 24 h
[26] = test system: UBR/PLK1 (Homo sapiens); experiment: Protac activity at UBR/PLK1 in human NCI-H1975 cells assessed as PLK1 degradation incubated for 24 hrs by immunoblotting analysis; conditions: dose 5-25 µM
[27] = as above
[28] = test system: UBR/PLK1 (Homo sapiens); experiment: Protac activity at UBR/PLK1 in human PC-9 cells assessed as PLK1 degradation at 30 uM incubated for 24 hrs by immunoblotting analysis
[29] = test system: HeLa; experiment: Antitumor activity against human HeLa cells xenografted in nude mouse assessed as fold reduction in tumor size at 10 mg/kg, iv; format: functional
[30] = test system: HeLa; experiment: Induction of cell cycle arrest in human HeLa cells assessed as delay in S phase progression at 10 uM incubated for 24 hrs by PI staining based flow cytometry analysis; format: functional
[31] = test system: UBR/PLK1 (Homo sapiens); experiment: Protac activity at UBR/PLK1 in human PC-9 cells assessed as PLK1 degradation at 25 uM incubated for 24 hrs by immunoblotting analysis
[32] = test system: NCI-H1975; experiment: Induction of cell cycle arrest in human NCI-H1975 cells assessed as fold increase in S phase population at 10 uM incubated for 24 hrs by PI staining based flow cytometry analysis; format: functional
[33] = test system: NCI-H1975; experiment: Cytotoxicity against human NCI-H1975 cells incubated for 24 hrs by MTT assay; format: functional, cell-based; conditions: NCI-H1975, 24 h
[34] = Drug uptake in human HeLa cells cell membrane at 10 uM incubated for 24 hrs by PI staining based inverted confocal laser scanning fluorescence microscopic analysis; format: ADME
[35] = test system: NCI-H1975; experiment: Antitumor activity against human NCI-H1975 cells harboring L858R/T790M double mutant xenografted in nude mouse assessed as fold reduction in tumor growth at 10 mg/kg, iv administered for every 3 days in presence of 5 mg/kg osimertinib; format: functional
[36] = test system: PC-9; experiment: Antitumor activity against human PC-9 cells xenografted in nude mouse assessed as fold reduction in tumor size at 10 mg/kg, iv; format: functional

Activity [2]: Active
Activity [8]: Active
Drug uptake [10]: Active
Emax [12]: 80%
Activity [15]: inactive
Activity [19]: Active
Emax [20]: > 60%
Kd [21]: 3.48 µM
Activity [23]: Dose-Dependent Effect
DC50 [24]: 2.5 µM
Activity [26]: Dose-Dependent Effect
DC50 [27]: 12 µM
Emax [28]: 100%
Activity [31]: > 90%
Drug uptake [34]: Active
SMILES: C[C@@H](OP(=O)(O)O)[C@@H]1NC(=O)[C@H](Cc2cncn2CCCCCCCCc2ccccc2)NC(=O)[C@@H](NC(=O)CCCCCNC(=O)[C@H](CCCNC(=N)N)NC(=O)[C@H](CCCNC(=N)N)NC(=O)[C@H](CCCNC(=N)N)NC(=O)[C@H](CCCNC(=N)N)NC(=O)[C@H](CCCNC(=N)N)NC(=O)[C@H](CCCNC(=N)N)NC(=O)[C@H](CCCNC(=N)N)NC(=O)[C@H](CCCNC(=N)N)NC(=O)[C@H](CCCNC(=N)N)NC(=O)[C@H](CCCNC(=N)N)NC(=O)[C@H](CCCNC(=N)N)NC(=O)[C@@H](N)CCCNC(=N)N)CCC(=O)NCCCC[C@@H](C(N)=O)NC1=O (H-RRRRRRRRRRRR[Ahx]E[His(π-(CH2)8Ph)][pT]K-NH2; lactam 14-17)
Activity [1]: Dose-Dependent Effect
Activity [3]: Active
Activity [4]: Active
fold change (FC) [5]: 3.5
Activity [6]: 11%
Activity [7]: Dose-Dependent Effect
IC50 [9]: 17.1 µM
Activity [11]: Active
IC50 [13]: 18 µM
Activity [14]: 10%
Activity [16]: 9%
fold change (FC) [17]: 6.3
Activity [18]: Active
Activity [22]: Active
IC50 [25]: 20.6 µM
fold change (FC) [29]: 3.4
Activity [30]: Active
Activity [32]: Active
IC50 [33]: 24.4 µM
fold change (FC) [35]: ~7
fold change (FC) [36]: 5.2
